Like-named read-outs stand apart in the source and are kept apart here.
Legend:
[1] = tested on: RH4 rhabdomyosarcoma cells; test: Cell viability IC50, RH4; type: cell-based; conditions: Homo sapiens, RH4 (RM)
Method: (§1) The plate was installed into the RTCA system, and the electrical impedance (represented as cell index) was measured every 10 min.
(§2) To investigate the relationship between the level of CD99 expression and drug sensitivity, the endogenous expression of CD99 was determined in a panel of 9 ES and 13 non-ES cell lines. The recombinant purified CD99-ECD protein was used to generate standard curves for immunoquantification of CD99 expression by immunoblotting (FIGS. 6B and 6C).

U-2-OS OS cells = test: Cell viability IC50, U-2-OS; type: cell-based; conditions: Homo sapiens, U2OS
Method: as §1, §2

IOR/OS20 OS cells = test: Cell viability IC50, IOR/OS20; type: cell-based; conditions: Homo sapiens
Method: as §1, §2

[2] = tested on: leukemia cell lines MOLT-4 and Jurkat; test: Cell viability IC50 panel, leukemia cell lines; type: cell-based; conditions: Homo sapiens
Method: as §1
Therefore, two leukemia cell lines, MOLT-4 and Jurkat, were included as positive controls in this experiment.

[3] = target: T1, CD99 homodimers in STA-ET-7.2 ES cells (Homo sapiens, UniProt P14209); test: Chemical cross-linking with BS3, CD99 homodimer formation; type: cell-based; conditions: 5 μmol/L, 1 h, then 1 mmol/L BS3; STA-ET-7.2 cells
T1 construct: STA-ET-7.2 ES cells, which express the highest level of CD99 protein among all ES cell lines; endogenous in cells; host or cells: STA-ET-7.2
Method: The cells were rinsed 3 times with ice-cold PBS, and treated with 1 mmol/L BS^3 (Thermo Scientific) in PBS for 10 min at 37° C. according to manufacturer's instructions. […] Protein samples were then prepared by lysing the cross-linked cells in a lysis buffer as described above.
To address this, in a chemical cross-linking assay, STA-ET-7.2 ES cells were preincubated with the inhibitors for 1 h at a final concentration of 5 μmol/L followed by the addition of 1 mmol/L BS^3, a membrane-impermeable chemical cross-linking agent.

[4] = tested on: RD18 rhabdomyosarcoma cells; test: Cell viability IC50, RD18; type: cell-based; conditions: Homo sapiens, RD18 (RM)
Method: as §1, §2

IOR/OS9 OS cells = test: Cell viability IC50, IOR/OS9; type: cell-based; conditions: Homo sapiens
Method: as §1, §2

[5] = target: T2, interaction of CD99 with cyclophilin A and PKA-RIIα (Homo sapiens, UniProt P14209); test: Co-immunoprecipitation of CD99 with cyclophilin A and PKA-RIIα; type: cell-based; conditions: 3 μmol/L, 6 h; RDES or STA-ET-7.2 cells
T2 construct: Endogenous CD99 was immunoprecipitated from RDES or STA-ET-7.2 ES cells; endogenous in cells; host or cells: RDES or STA-ET-7.2
Method: In FIG. 7A, STA-ET-7.2 ES cells were incubated with either drug at 5 μmol/L concentration or DMSO for 1 h. The cells were treated with cross-linking agent BS^3 as described in the Examples. The lysates were resolved in 12% SDS-PAGE followed by immunoblotting with anti-actin and anti-CD99 clone 013 antibodies. M and D represent monomeric and dimeric forms of CD99, respectively. Values given below the lanes on the immunoblot represent the relative density of the bands, and were determined using ImageJ 1.48v software. In FIG. 7B, RDES or STA-ET-7.2 ES cells were treated with 3 μmol/L of either drug for 6 h. Endogenous CD99 was immunoprecipitated from total cell lysates using either anti-CD99 clone 12E7 antibody or anti-CD99 clone 013 antibody. Immunoblot (IB) analysis was performed for cyclophilin A, CD99 and PKA-RIIα using both cell lysates (TCL) and immunoprecipitated (IP) samples. Values given below the lanes on each immunoblot represent the relative density of the bands, and were determined using ImageJ 1.48v software. In FIG. 7C, SAOS-2 and U-2 OS cells were transiently transfected with an empty mammalian expression vector (EV) or an expression construct containing a cDNA encoding full length human CD99. The growth rate of cells was monitored by electrical impedance in real time. […]

[6] = tested on: TC-71, 6647 and RDES ES cells; test: Soft agar colony formation assay, ES cells; type: cell-based, human; conditions: dose-dependent
Method: Anchorage-independent growth was determined in 0.33% agarose (Sea-Plaque Agarose, Lonza) with a 0.5% agarose underlay. […] Colonies were counted after 7-12 days.

[7] = 48 h, read-out: average IC50 concentration for leukemia cell lines
[8] = MOLT-4 and Jurkat, read-out: IC50, leukemia cell lines

T1 sequence (P14209 23-185): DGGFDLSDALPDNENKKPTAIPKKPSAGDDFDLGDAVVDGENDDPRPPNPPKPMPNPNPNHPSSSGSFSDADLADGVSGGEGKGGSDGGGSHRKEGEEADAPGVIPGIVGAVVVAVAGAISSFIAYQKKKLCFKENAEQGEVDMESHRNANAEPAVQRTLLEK
T2 sequence (P14209 23-185): as above

With Nc1nc(Cl)nc2c1ncn2[C@H]1C[C@H](O)[C@@H](CO)O1 [cladribine] the IC50 [1] was over 30 µM, the IC50 (U-2-OS OS cells) was over 30 µM and the IC50 (IOR/OS20 OS cells) was over 30 µM. The IC50 [2, 7] was 0.34 ± 0.03 µM, the IC50 [2, 8] was under 1 µM and the “formation of CD99 homodimers” value [3] was “significantly reduced”. For the same compound, the IC50 [4] was 3.67 µM, the IC50 (IOR/OS9 OS cells) was over 30 µM and the “amount of coprecipitated cyclophilin A and PKA-RIIα” value [5] was “decreased significantly”. The “colony formation (anchorage-independent growth)” value [6] was “significantly inhibited”.
Nc1nc(Cl)nc2c1ncn2[C@@H]1O[C@H](CO)[C@@H](O)[C@@H]1F [clofarabine] was tested, and the IC50 [1] was over 10 µM, the IC50 (U-2-OS OS cells) was over 30 µM and the IC50 (IOR/OS20 OS cells) was over 10 µM. The IC50 [2, 7] was 0.18 ± 0.01 µM, the IC50 [2, 8] was under 1 µM and the “formation of CD99 homodimers” value [3] was “blocked”. For the same compound, the IC50 [4] was 0.97 µM, the IC50 (IOR/OS9 OS cells) was over 10 µM and the “amount of coprecipitated cyclophilin A and PKA-RIIα” value [5] was “decreased significantly”. For the same compound, the “colony formation (anchorage-independent growth)” value [6] was “significantly inhibited”.

— patent publication US11202792B2, “CD99 inhibitors and their uses” (GEORGETOWN UNIVERSITY, priority 2016, dated 2021)
